Measurements as given in patent US5677459A, “Methods for the preparation of modulators of acetylcholine receptors” (Sibia Neurosciences, Inc., priority 1995, dated 1997).
pIC50: −log10 of the molar value. Structures can show the parent of a compound that is named as a salt. Where two headings read alike, the source gives them in different places.

Tests used:
[1] = tested on: ^3 H-Dopamine release, rat striatal slices; assay: Ligand-stimulated ^3 H-dopamine release from rat striatal slices; assay type: cell-based; conditions: for Emax at 300 µM: Rattus norvegicus, read-out: % of Nicotine Response, ^3 H-Dopamine, Striatum
Procedure: (§1) Measurement of ^3 H-dopamine release from rat striatal slices was performed according to the method of Sacaan et al. (J. Neurochem. 59:245 (1992)). Male Sprague-Dawley rats (250-300 g) were decapitated and the striata or olfactory tubercles dissected quickly on a cold glass surface. The tissue was chopped to a thickness of 300 μm with a McIlwain tissue chopper. After chopping again at right angles the tissue was dispersed and incubated for 10 min. at 37° C. in oxygenated Kreb's buffer. ^3 H-Dopamine (40 Ci/mmol, NEN- Dupont, Boston, Mass.) was added (50 nM) and the tissue was incubated for 30 min. in Kreb's buffer containing 10 μM pargyline and 0.5 mM ascorbic acid. Aliquots of the minced tissue were then transferred to chambers of a Brandel Superfusion system in which the tissue was supported on Whatman GF/B filter discs. The tissue was then superfused with buffer at a constant flow rate of 0.3 ml/min by means of a Brandel peristaltic pump. The perfusate was collected in plastic scintillation vials in 3-min fractions, and the radioactivity was estimated by scintillation spectrophotometry. The superfusate for the first 120 min was discarded. After two baseline fractions had been collected, the superfusion buffer was switched to fresh buffer with or without compound of interest. At the end of the experiment the filter and the tissue were removed, and the radiolabeled neurotransmitter content was estimated after extraction into scintillation fluid. The fractional efflux of radiolabeled neurotransmitter was estimated as the amount of radioactivity in the perfusate fraction relative to the total amount in the tissue.
(§2) Results of studies of the effects of an invention compound (as compared to the effect of nicotine) on the release of neurotransmitters from rat brain slices are presented in Table II. Results presented in Part A of the Table are expressed as the percent fractional release and results presented in Part B of the Table are expressed as a percentage, relative to nicotine response.

[2] = target: muscarinic acetylcholine receptors; assay: ^3 H-QNB (quinuclidinyl benzilate) binding/displacement, rat cerebral membranes
[3] = target: T1, nicotinic acetylcholine receptor (Rattus norvegicus, UniProt P09483+P12390); assay: ^3 H-Nicotine binding/displacement, rat cerebral membranes
T1 construct: the brains removed and the cerebral cortex dissected on ice; from tissue; host or cells: cerebral cortex synaptic membranes of male Sprague-Dawley rats
T1 sequence (P09483 31-630): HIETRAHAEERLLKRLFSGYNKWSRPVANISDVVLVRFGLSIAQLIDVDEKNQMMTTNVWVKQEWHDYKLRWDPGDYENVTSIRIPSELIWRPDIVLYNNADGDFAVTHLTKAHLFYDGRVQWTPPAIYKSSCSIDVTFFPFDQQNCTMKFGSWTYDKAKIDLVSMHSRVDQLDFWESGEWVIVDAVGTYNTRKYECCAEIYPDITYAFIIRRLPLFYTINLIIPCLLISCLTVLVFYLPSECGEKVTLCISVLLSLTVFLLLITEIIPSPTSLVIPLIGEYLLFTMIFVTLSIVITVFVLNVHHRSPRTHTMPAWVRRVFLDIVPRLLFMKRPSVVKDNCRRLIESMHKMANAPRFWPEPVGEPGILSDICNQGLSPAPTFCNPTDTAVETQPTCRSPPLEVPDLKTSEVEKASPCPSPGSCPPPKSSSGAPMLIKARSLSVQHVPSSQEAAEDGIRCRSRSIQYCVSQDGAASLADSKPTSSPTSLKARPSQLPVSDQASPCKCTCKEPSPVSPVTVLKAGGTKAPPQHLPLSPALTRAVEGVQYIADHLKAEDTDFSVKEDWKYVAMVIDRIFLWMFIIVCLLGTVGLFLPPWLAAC
T1 sequence (P12390 25-500): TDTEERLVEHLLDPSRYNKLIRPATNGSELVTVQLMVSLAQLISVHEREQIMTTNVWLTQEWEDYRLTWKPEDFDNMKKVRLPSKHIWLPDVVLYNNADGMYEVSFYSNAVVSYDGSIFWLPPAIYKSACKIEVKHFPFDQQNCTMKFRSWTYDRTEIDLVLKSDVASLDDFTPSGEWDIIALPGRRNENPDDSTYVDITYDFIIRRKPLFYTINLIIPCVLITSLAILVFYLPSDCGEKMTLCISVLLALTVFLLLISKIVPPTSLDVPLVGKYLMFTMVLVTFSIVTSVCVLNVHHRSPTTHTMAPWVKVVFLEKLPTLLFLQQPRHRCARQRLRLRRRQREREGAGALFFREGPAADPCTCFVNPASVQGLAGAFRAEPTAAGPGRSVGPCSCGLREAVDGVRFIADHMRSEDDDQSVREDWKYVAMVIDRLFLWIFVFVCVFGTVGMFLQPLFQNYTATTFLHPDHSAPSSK
Procedure: ^3 H-Nicotine binding to rat cerebral membranes was performed according to modifications of the method of Flyn and Mash (J. Neurochem. 47:1948 (1986)). ^3 H-Nicotine (80 ci/mmol; New England Nuclear Corporation, Boston, Mass.) was used as the ligand for nicotinic acetylcholine receptor binding assays. All other reagents were purchased from the Sigma Chemical Co. (St. Louis, Mo.).
Male Sprague-Dawley rats (250-400 gm) were sacrificed by decapitation, the brains removed and the cerebral cortex dissected on ice. Synaptic membranes were prepared by homogenizing the cortical tissue in 20 volumes of ice-cold modified Tris buffer (50 mM Tris pH 7.4, 120 mM NaCl, 5 mM KCl, 2 mM EDTA, 1 mM PMSF) with a polytron (20 sec at setting 5-6) followed by centrifugation (15 min at 5,000×g) at 4° C. The resultant pellet was rehomogenized and centrifuged twice. The final pellet was resuspended in ice-cold assay buffer (50 mM Tris pH 7.4, 120 mM NaCl, 5 mM KCl, 2 mM CaCl2, 1 mM MgCl2) at a concentration of membrane equivalent to 1 gm wet weight cortex per 10 ml buffer. After protein determination the final membrane preparation was diluted with buffer to 3 mg protein/mi. This membrane preparation was used in either the fresh state or frozen (-70° C.) then thawed.
The binding assay is performed manually using 96-well plates, or using a Biomek automated work station (Beckman Instrument Co.). ^3 H-Nicotine was diluted in assay buffer to give a final concentration of 1.9 nM. The Biomek automated work station was programmed to automatically transfer 750 μl of assay buffer with ^3 H-nicotine, 230 μl of membrane preparation and 20 μl of solution containing the compound of interest in assay buffer, DMSO, ethanol:DMSO (1:1) or appropriate vehicle to the 96-well plate. Atropine was added to the incubation buffer at a final concentration of 3 μM to block binding to muscarinic acetylcholine receptor sites. The plates were maintained on ice for 60 min and the tissue-bound radioactivity was separated from the free by rapid filtration in a Brandel Harvester onto GF/C filters presoaked in 0.5% polyethyleneimine for at least 2 hr. The filters were washed with 4×2 ml of ice-cold assay buffer and filters were transferred to vials to which 4 ml of scintillation cocktail was added. The radioactivity was measured in a LS-6500 Beckman Liquid Scintillation Counter in an autodpm mode. Data were analyzed bylog-logit transformation or non-linear regression analysis (e.g., employing GraphPad Prism, available from GraphPad Software, San Diego, Calif.) to give IC50 values. Non-specific binding was defined by 10 μM cytisine.

[4] = tested on: ^3 H-Norepinephrine release, rat hippocampus slices; assay: Ligand-stimulated ^3 H-norepinephrine release from rat hippocampus slices; assay type: cell-based; conditions: for Emax at 300 µM: Rattus norvegicus, nicotine 300 μM = 100, read-out: % of Nicotine Response, ^3 H-Norepinephrine, Hippocampus; for % of Nicotine Response, ^3 H-Norepinephrine, Hippocampus: nicotine 300 μM = 100
Procedure: as §1
(§3) Following essentially the same procedure as set forth above, the amount of ^3 H-norepinephrine released from rat hippocampus, thalamus and prefrontal cortex slices superfused with buffer containing (or lacking) compounds of interest was also measured.
as §2

[5] = tested on: ^3 H-Norepinephrine release, rat thalamus slices; assay: Ligand-stimulated ^3 H-norepinephrine release from rat thalamus slices; assay type: cell-based; conditions: in vitro slices, 300 μM
Procedure: as §1, §3, §2

[6] = tested on: ^3 H-Dopamine release, rat olfactory tubercles; assay: Ligand-stimulated ^3 H-dopamine release from rat olfactory tubercles; assay type: cell-based; conditions: in vitro slices, 300 μM
Procedure: as §1, §2

[7] = tested on: rats; assay: Locomotor activity assay; assay type: in vivo, rat (male Sprague-Dawley); conditions: Rattus norvegicus, sc, 20 mg/kg, s.c.
Procedure: This assay can be used to assess the primary effect of a compound on general motor activity. A decrease in locomotor activity is indicative of a possible sedative effect on the animal, whereas an increase in locomotor activity is indicative of a stimulant effect on the animal.
Locomotor activity of rats (male Sprague-Dawley (Harlan) weighing 200-250 gm) was measured for 2 hrs in photocell cages immediately after administration of the invention compound. Prior to the test day, the animals were placed in the activity cages for 3 hrs to familiarize them with the experimental environment. On the test day, the animals were placed in the photocell cages and then injected with compound 1.5 hrs later.
The photocell cages were standard rodent cages (30 cm×20 cm×40 cm) with four infrared beams crossing the long axis. The animals were under no motivational constraints and were free to move around. Movements from one infrared beam to another (ambulation) were called "crossover"; successive interruptions of the same beam (vertical and other movements such as grooming) were called "general activity."

[8] = compounds at 300 μM, nicotine 10 μM = 100
[9] = ^3 H-QNB 60 pM, rat cerebral membranes
[10] = ^3 H-nicotine 1.9 nM, rat cerebral membranes, read-out: IC50, Nicotine

| SMILES | Emax at 300 µM [1, 8] [%] | pIC50 [2, 9] | pIC50 [3, 10] | Emax at 300 µM [4] [%] | further results |
| --- | --- | --- | --- | --- | --- |
| CN1CCCC1c1cncc(C#CC(C)(C)O)c1 (stereo not shown) | 118 | < 4.00 | 7.42 | 18.3 |  |
| C#Cc1cncc(C2CCCN2C)c1 (single isomer, unassigned) [5-Ethynyl-3-(1-methyl-2-pyrrolidinyl)pyridine di-p-toluoyl-L-tartrate] |  |  |  |  | Emax at 300 µM ([1]; compound at 300 μM, Nicotine concentration was 300 μM): 155%; pIC50 ([3]; IC50, Nicotine): 8.59 |
| C#Cc1cncc(C2CCCN2C)c1 (single isomer, unassigned) [5-ethynyl-3-(1-methyl-2-pyrrolidinyl)pyridine di-p-toluoyl-D-tartrate] | 33 |  |  |  | pIC50 ([3]; IC50, Nicotine): 7.11 |
| C#Cc1cncc(C2CCCN2C)c1 (single isomer, unassigned) [R^5 = 5-(1-ethynyl) Di-p-toluoyl-D-tartrate] [5-ethynyl-3-(1-methyl-2-pyrrolidinyl)pyridine di-p-toluoyl-D-tartrate] |  | 5.33 |  |  | % of Nicotine Response, ^3 H-Norepinephrine, Hippocampus ([4]; 300 μM): 3.7% |
| C#Cc1cncc(C2CCCN2C)c1 (single isomer, unassigned) [R^5 = 5-(1-ethynyl) Di-p-toluoyl-L-tartrate] [5-Ethynyl-3-(1-methyl-2-pyrrolidinyl)pyridine di-p-toluoyl-L-tartrate] |  |  |  |  | % of Nicotine Response, ^3 H-Norepinephrine, Hippocampus ([4]; 300 μM): 17.4% |
| Fc1ccc(-c2cncc(C3CCCCN3)c2)cc1 (stereo not shown) [5-(4-Fluorophenyl)-3-(2-piperidinyl)pyridine fumarate] |  | 4.60 | 6.31 |  |  |
| C#Cc1cncc(C2CCC(=O)N2C)c1 (stereo not shown) [A = C(O); R^7 = CH3; R^5 = 5-(1-ethynyl), 5-Ethynyl-3-(1-methyl-5-pyrrolidin-2-onyl)pyridine] |  | < 4.00 | < 4.00 |  |  |
| Cc1ccc(-c2cncc(C3CCCN3C)c2)cc1.O=C(O)/C=C/C(=O)O (stereo not shown) [R^5 = 4-methylphenyl, 5-(4-Methylphenyl)-3-(1-methyl-2-pyrrolidinyl)pyridine fumarate] |  | 4.85 | 7.51 |  | percent fractional release, ^3 H-Norepinephrine, Thalamus [5]: 0.31%; percent fractional release, ^3 H-Dopamine, Striatum ([1]; in vitro slices, 300 μM): 0.74%; percent fractional release, ^3 H-Dopamine, Olfactory Tubercles [6]: 1.0%; percent fractional release, ^3 H-Norepinephrine, Hippocampus ([4]; in vitro slices, 300 μM): 0.52% |
| CN(C)CC#Cc1cncc(C2CCCN2C)c1 (stereo not shown) [R^5 = 5-(1-dimethylamino-2-propynyl), 5-[3-(1-Dimethylamino-2-propynyl)]-3-(1-methyl-2-pyrrolidinyl)pyridine fumarate] | 235 | 4.00 | 7.60 |  |  |
| CN1CCCC1c1cncc(C#CCO)c1 (stereo not shown) [R^5 = 5-(1-hydroxy-2-propynyl)] | 157 | < 4.00 | 8.44 | 39 |  |
| CN1CCCC1c1cncc(C#CCCO)c1 (stereo not shown) [R^5 = 5-(1-hydroxy-3-butynyl)] | 100 | < 4.00 | 8.22 | 36.3 |  |
| COCC#Cc1cncc(C2CCCN2C)c1 (stereo not shown) [R^5 = 5-(1-methoxy-2-propynyl), 5-[3-(1-Methoxy-2-propynyl)]-3-(1-methyl-2-pyrrolidinyl)pyridine fumarate] | 61.7 | < 4.00 | 8.59 | 7.4 |  |
| CCCC#Cc1cncc(C2CCCN2C)c1 (stereo not shown) [R^5 = 5-(1-pentynyl), 5-[1-(1-Pentynyl)]-3-(1-methyl-2-pyrrolidinyl)pyridine fumarate] | 27.7 | 4.41 | 8.38 |  |  |
| CC#Cc1cncc(C2CCCN2C)c1 (stereo not shown) [R^5 = 5-(1-propynyl), 5-[1-(1-Propynyl)]-3-(1-methyl-2-pyrrolidinyl)pyridine fumarate] |  | < 4.00 | 7.54 |  |  |
| CC(O)C#Cc1cncc(C2CCCN2C)c1 (stereo not shown) [R^5 = 5-(2-hydroxy-3-butynyl), 5-[4-(2-Hydroxy-3-butynyl)]-3-(1-methyl-2-pyrrolidinyl)pyridine fumarate] | 98 | < 4.00 | 7.96 | 30.5 |  |
| CN1CCCC1c1cncc(C#CCCCCCCC#Cc2cncc(C3CCCN3C)c2)c1 (stereo not shown) [R^5 = See below*, 1,10-Bis-5-[3-(1-methyl-2-pyrrolidinyl)pyridine]-deca-1,9-diyne fumarate] |  |  |  |  | pIC50 [2]: 5.12; pIC50 ([3]; IC50, Nicotine, ^3 H-nicotine 1.9 nM, rat cerebral membranes): 8.28 |
| CN1CCCC1c1cncc(C#Cc2ccccc2)c1 (stereo not shown) [R^5 = phenylethynyl, 5-Phenylethynyl-3-(1-methyl-2-pyrrolidinyl)pyridine fumarate] |  |  |  |  | change in vivo at 20 mg/kg ([7]; 1 h, 0-60 min, read-out: Ambulation (cross overs), percent of change from control): 7%; change in vivo at 20 mg/kg ([7]; 1 h, 0-60 min, read-out: General Activity (beam breaks), percent of change from control): 3%; change in vivo at 20 mg/kg ([7]; 2 h, 60-120 min, read-out: Ambulation (cross overs), percent of change from control): -16%; change in vivo at 20 mg/kg ([7]; 2 h, 60-120 min, read-out: General Activity (beam breaks), percent of change from control): -11% |
| C#Cc1cncc(C2CCCN2)c1 (stereo not shown) [R^7 = H; R^5 = 5-(1-ethynyl), 5-Ethynyl-3-(1-H-2-pyrrolidinyl)pyridine fumarate] | 61.7 | 5.05 | 7.24 | 13.4 |  |
